Values quoted from earlier work in patent publication US20090030079A1 (priority 2007, published 2009).
Where two headings read alike, the source gives them in different places.

Legend:
[1] = Bi^3+, cited from earlier work
[2] = Mn^2+; cited from earlier work
[3] = cited from earlier work

SMILES | binding stability constant (log K) [1] | binding stability constant (log K) ([1]; listed as trientine) | binding stability constant (log K) [2] | solubility ([3]; in acetone) | solubility ([3]; in alcohol) | solubility ([3]; in benzene) | solubility ([3]; in carbon tetrachloride) | solubility ([3]; in ether) | solubility ([3]; in water)
NCCNCCNCCN [Trientine, N,N′-bis (2-aminoethyl)-1,2-ethanediamine] | 21.9 | very strongly | 4.90 | – | – | – | – | – | –
CC(C)(S)[C@@H](N)C(=O)O [Penicillamine, 3-mercapto-D-valine] | – | – | – | insoluble | slightly soluble | insoluble | insoluble | insoluble | freely soluble
